Experimental data taken from patent publication US8414911B2, “Photochemical therapy to affect mechanical and/or chemical properties of body tissue” (The Regents of the University of California, priority 2006, dated 2013).
“Also recorded” adds a separate entry of the source.

Assays:
[1] = test system: human and porcine sclera; conditions: human and porcine sclera in vitro; cited from earlier work
[2] = test system: sclera of enucleated eyes; test: Ocular inflation model of myopia (enucleated eyes, elevated IOP 85 mmHg); parameters: species or system New Zealand White Rabbits; conditions: 0.3% soak 5 min, 10 mW/cm^2, 365 nm, 10 min anterior and 10 min posterior
Description: Stabilization of ocular shape is evaluated in vitro using pairs of enucleated eyes from young (˜1-2 weeks) New Zealand White Rabbits, one eye treated and the fellow eye as control. To mimic and accelerate aspects of the loading geometry present in vivo, the intact globes are mechanically tested by imposing an elevated intraocular pressure: a syringe connects the intraocular fluid to an elevated reservoir of Dulbecco's phosphate buffered saline (DPBS) while the exterior of the eye is immersed in DPBS at ambient pressure (FIG. 1).
The size and shape of the globes are simultaneously recorded from two orthogonal perspectives over time. To prepare eyes for the tests, the epithelium is optionally removed from the cornea with a cotton swab, and external fat is removed from the globe. (Note that permeation of the photoinitiator into tissue is examined separately below.) The eyes are then soaked in control (Dulbecco's PBS) or treatment solutions (e.g., 0.029 mM Eosin Y, 90 mM TEOA, in DPBS) for 5 min. After soaking, the eyes are patted dry to remove extra solution from the surface, and then irradiated for 5 min from the front and 5 min from the back with, e.g., 34 mW/cm^2 at 500±50 nm for Eosin Y/TEOA. […] Photographs taken every 10 minutes for approximately 24 hours are analyzed to quantify the extension of the cornea and sclera.

[3] = test system: porcine sclera sections; test: Rheometric analysis of sclera sections (modulus pre- and post-treatment); conditions: photoinitiator alone, compared with photoinitiator plus PEGDM
Excerpt: The ability of initiator with or without crosslinking compounds to strengthen the sclera was initially evaluated using rheometric analysis of tissue sections. Sclera sections (8 mm diameter) were cut from porcine eyes and tested on a TA Instruments AR1000 rheometer (using a cleated parallel plate geometry) to quantify changes in modulus pre- and post-treatment. Two example photoinitiators were selected for initial evaluation.

[4] = after use of topically applied proparacaine (Ehlers et al.); cited from earlier work

SMILES	increase of Young's modulus compared to untreated controls [1]	also measured
O=CCCCC=O [Glutaraldehyde]	122%	–
CC(C)(O)C(=O)c1ccc(OCCO)cc1 [compound 12959, 2-hydroxy-1-[4-(2-hydroxyethoxy)phenyl]-2-methyl-1-propanone]	–	stabilization of eye shape / sclera under elevated IOP [2]: hold a steady shape; also recorded: stabilize the sclera; increases in modulus [3]: comparable increases in modulus
O=CC(O)CO (stereo not drawn) [glyceraldehyde]	34%	–
CCCOc1ccc(C(=O)OCCN(CC)CC)cc1N [proparacaine]	–	increases in drug delivery to the aqueous [4]: 4 fold
Cc1cc2nc3c(=O)[nH]c(=O)nc-3n(C[C@H](O)[C@H](O)[C@H](O)CO)c2cc1C [riboflavin-UVA, riboflavin]	29%	–
